{"source": "patent US8492422B2", "about": "“Ester pro-drugs of [3-(1-(1H-imidazol-4-yl)ethyl)-2-methylphenyl] methanol for treating skin diseases and conditions” (Allergan, Inc., priority 2010, dated 2013)", "experiment": "In Vitro Human Skin Permeability Assay (static Franz diffusion cells)", "details": "in vitro Franz diffusion cell; 0.65% (Compound 2) and 0.55% (Compound 1) (w/w) dose; 48 hour dose exposure; 5 mg formulation/cm^2", "description": "To assure the integrity of each skin section, its permeability to tritiated water was determined before application of the test products."}
{"molecule": "Cc1c(COC(=O)C(C)C)cccc1[C@H](C)c1c[nH]cn1", "note": "[Compound 1, iso-Butyric acid 3-[(S)-1-(1H-imidazol-4-yl)-ethyl]-2-methyl-benzyl ester]", "values": [{"measurement": "penetration into and through ex vivo human trunk skin (percutaneous absorption)", "value": "penetrate into and through ex vivo human trunk skin"}]}
